Values after ≈ are worked out from the molar mass of the structure shown.
Key:
Experiment in all cases: ≥ marks a high value that may be exact or a test limit, other limits are often not marked, values filed in µg/mL are converted to µM
[1] = tested on: Candida albicans ATCC 90028
[2] = tested on: Escherichia coli ATCC 25922
[3] = tested on: Pseudomonas aeruginosa ATCC 27853
[4] = tested on: Staphylococcus aureus ATCC 29213
[5] = tested on: Bacillus cereus
[6] = tested on: Escherichia coli
[7] = tested on: Staphylococcus aureus

SMILES | MIC [1] [µM] | MIC [2] [µM] | MIC [3] [µM] | MIC [4] [µM] | MIC [5] [µM] | MIC [6] [µM] | MIC [7] [µM]
CC[C@H](C)[C@H](NC(=O)[C@H](Cc1ccccc1)NC(=O)CN)C(=O)NCC(=O)N[C@@H](CCCCN)C(=O)N[C@@H](CC(C)C)C(=O)N[C@@H](C)C(=O)N[C@@H](CO)C(=O)N[C@@H](CCCCN)C(=O)N[C@H](C(=O)N[C@H](C(=O)N1CCC[C@H]1C(=O)N[C@@H](CO)C(=O)N[C@H](C(=O)N[C@@H](Cc1ccc(O)cc1)C(=O)N[C@@H](CS)C(=O)N[C@@H](CCCCN)C(=O)N[C@H](C(=O)N[C@H](C(=O)NCC(=O)O)[C@@H](C)O)C(C)C)C(C)C)C(C)C)C(C)C [GFIGKLASKVVPSVYCKVTG] |  |  |  |  | ≥ 125 | 62.3 (≈ 128 µg/mL) | 
CC(C)C[C@H](NC(=O)[C@H](CCCCN)NC(=O)[C@H](Cc1ccccc1)NC(=O)[C@@H](NC(=O)[C@@H](NC(=O)[C@H](CCCCN)NC(=O)[C@H](CC(C)C)NC(=O)[C@@H](N)Cc1ccccc1)C(C)C)C(C)C)C(=O)N[C@@H](C)C(=O)N[C@@H](CO)C(=O)N[C@@H](CCCCN)C(=O)N[C@H](C(=O)N[C@@H](Cc1ccccc1)C(=O)NCC(=O)N[C@@H](C)C(=O)N[C@H](C(=O)N[C@@H](Cc1ccccc1)C(=O)NCC(=O)N[C@@H](CCCCN)C(=O)N[C@H](C(=O)O)C(C)C)C(C)C)C(C)C [FLKVVFKLASKVFGAVFGKV] |  |  |  |  | 7.32 (≈ 16 µg/mL) | 58.6 (≈ 128 µg/mL) | 7.32 (≈ 16 µg/mL)
CC(C)C[C@H](NC(=O)[C@H](CCCCN)NC(=O)[C@H](Cc1ccccc1)NC(=O)[C@@H](NC(=O)[C@H](CCCCN)NC(=O)CNC(=O)[C@H](CC(C)C)NC(=O)[C@@H](N)Cc1ccccc1)C(C)C)C(=O)N[C@@H](C)C(=O)N[C@@H](CO)C(=O)N[C@@H](CCCCN)C(=O)N[C@H](C(=O)N[C@@H](Cc1ccccc1)C(=O)N[C@@H](CCCCN)C(=O)N[C@@H](C)C(=O)N[C@H](C(=O)N[C@@H](Cc1ccccc1)C(=O)NCC(=O)N[C@@H](CCCCN)C(=O)N[C@H](C(=O)O)C(C)C)C(C)C)C(C)C [FLGKVFKLASKVFKAVFGKV] |  |  |  |  | 3.61 (≈ 8 µg/mL) | 7.23 (≈ 16 µg/mL) | 1.81 (≈ 4 µg/mL)
CC[C@H](C)[C@H](NC(=O)[C@H](C)NC(=O)CNC(=O)[C@H](Cc1ccccc1)NC(=O)[C@@H](NC(=O)[C@H](CO)NC(=O)[C@@H]1CCCN1C(=O)[C@@H](NC(=O)[C@@H](NC(=O)[C@H](CCCCN)NC(=O)[C@H](CO)NC(=O)[C@H](C)NC(=O)[C@H](CC(C)C)NC(=O)[C@H](CO)NC(=O)CNC(=O)[C@@H](NC(=O)[C@@H](N)Cc1ccccc1)C(C)C)C(C)C)C(C)C)C(C)C)C(=O)N[C@@H](CCCCN)C(=O)N[C@H](C(=O)N[C@@H](CCCCN)C(=O)O)[C@@H](C)O [FVGSLASKVVPSVFGAIKTK] |  |  |  |  | ≥ 126 | > 126 | 
CC(C)C[C@H](NC(=O)[C@@H](N)Cc1ccccc1)C(=O)N[C@@H](CCCCN)C(=O)N[C@H](C(=O)N[C@H](C(=O)N[C@@H](Cc1ccccc1)C(=O)N[C@@H](CCCCN)C(=O)N[C@@H](CCCCN)C(=O)N[C@@H](C)C(=O)N[C@@H](CO)C(=O)N[C@@H](CCCCN)C(=O)N[C@H](C(=O)N[C@@H](Cc1ccccc1)C(=O)N1CCC[C@H]1C(=O)N[C@@H](C)C(=O)N[C@H](C(=O)N[C@@H](Cc1ccccc1)C(=O)NCC(=O)N[C@@H](CCCCN)C(=O)N[C@H](C(=O)O)C(C)C)C(C)C)C(C)C)C(C)C)C(C)C [FLKVVFKKASKVFPAVFGKV] |  |  |  |  | ≥ 57.1 | 57.1 (≈ 128 µg/mL) | > 57.1
CC(C)C[C@H](NC(=O)[C@H](CCCCN)NC(=O)[C@H](Cc1ccccc1)NC(=O)[C@@H](NC(=O)[C@H](CCCCN)NC(=O)[C@H](CCCCN)NC(=O)[C@H](CC(C)C)NC(=O)[C@@H](N)Cc1ccccc1)C(C)C)C(=O)N[C@@H](C)C(=O)N[C@@H](CO)C(=O)N[C@@H](CCCCN)C(=O)N[C@H](C(=O)N[C@@H](Cc1ccccc1)C(=O)N1CCC[C@H]1C(=O)N[C@@H](C)C(=O)N[C@H](C(=O)N[C@@H](Cc1ccccc1)C(=O)NCC(=O)N[C@@H](CCCCN)C(=O)N[C@H](C(=O)O)C(C)C)C(C)C)C(C)C [FLKKVFKLASKVFPAVFGKV] |  |  |  |  | 14.2 (≈ 32 µg/mL) | 1.77 (≈ 4 µg/mL) | 28.4 (≈ 64 µg/mL)

Other lines, results leading:

MIC [1] [µM] | MIC [2] [µM] | MIC [3] [µM] | MIC [4] [µM] | MIC [5] [µM] | MIC [6] [µM] | MIC [7] [µM] | SMILES
≥ 40 | 20 (≈ 31.7 µg/mL) | 40 (≈ 63.5 µg/mL) | 40 (≈ 63.5 µg/mL) |  |  |  | CC[C@H](C)[C@H](NC(=O)[C@H](CCCN=C(N)N)NC(=O)[C@@H](N)CCCCN)C(=O)N[C@H](C(=O)N[C@@H](CCC(N)=O)C(=O)N[C@@H](CCCN=C(N)N)C(=O)N[C@@H](CCCCN)C(=O)N[C@@H](CCCCN)C(=O)N[C@@H](CC(=O)O)C(=O)N[C@@H](Cc1ccccc1)C(=O)N[C@@H](CC(C)C)C(=O)N[C@@H](CCCN=C(N)N)C(=O)O)C(C)C [KRIVQRKKDFLR]
 |  |  |  | ≥ 122 | > 122 |  | CC(C)C[C@H](NC(=O)CNC(=O)[C@H](Cc1ccccc1)NC(=O)[C@@H](NC(=O)[C@H](CO)NC(=O)[C@@H]1CCCN1C(=O)[C@@H](NC(=O)[C@@H](NC(=O)[C@H](CCCCN)NC(=O)[C@H](CO)NC(=O)[C@H](C)NC(=O)[C@H](CC(C)C)NC(=O)[C@H](CCCCN)NC(=O)[C@H](Cc1ccccc1)NC(=O)[C@@H](NC(=O)[C@H](C)NC(=O)[C@@H]1CCCN1C(=O)[C@@H](N)CC(C)C)C(C)C)C(C)C)C(C)C)C(C)C)C(=O)N[C@H](C(=O)N[C@@H](CCCCN)C(=O)O)C(C)C [LPAVFKLASKVVPSVFGLVK]
5 (≈ 7.64 µg/mL) | 1.25 (≈ 1.91 µg/mL) | 1.25 (≈ 1.91 µg/mL) | 2.5 (≈ 3.82 µg/mL) |  |  |  | CC[C@H](C)[C@H](NC(=O)[C@H](CCCN=C(N)N)NC(=O)[C@H](CCC(N)=O)NC(=O)[C@@H](NC(=O)[C@@H](NC(=O)[C@H](CCCN=C(N)N)NC(=O)[C@@H](N)CCCCN)[C@@H](C)CC)C(C)C)C(=O)N[C@@H](CCCCN)C(=O)N[C@@H](C)C(=O)N[C@@H](Cc1ccccc1)C(=O)N[C@@H](CC(C)C)C(=O)N[C@@H](CCCN=C(N)N)C(=O)O [KRIVQRIKAFLR]
 |  |  |  | ≥ 126 | > 126 |  | CC[C@H](C)[C@H](NC(=O)[C@H](CO)NC(=O)[C@H](C)NC(=O)[C@H](CCCCN)NC(=O)[C@H](CC(C)C)NC(=O)[C@@H](NC(=O)[C@@H](NC(=O)[C@@H]1CCCN1C(=O)[C@@H](NC(=O)[C@@H](NC(=O)[C@@H](N)CCCCN)[C@@H](C)O)C(C)C)C(C)C)C(C)C)C(=O)N[C@@H](CCCCN)C(=O)N[C@H](C(=O)N[C@@H](CO)C(=O)N[C@@H](CO)C(=O)N[C@@H](C)C(=O)NCC(=O)N[C@@H](Cc1ccccc1)C(=O)NCC(=O)N[C@@H](Cc1ccccc1)C(=O)O)C(C)C [KTVPVVLKASIKVSSAGFGF]
≥ 130 | 23 (≈ 65.8 µg/mL) |  |  |  |  |  | CC[C@H](C)[C@H](NC(=O)CN)C(=O)N[C@@H](CCSC)C(=O)N[C@@H](CC(=O)O)C(=O)N[C@H](C(=O)N[C@H](C(=O)N[C@@H](CCCCN)C(=O)N[C@@H](CC(N)=O)C(=O)N[C@@H](C)C(=O)N[C@@H](C)C(=O)N[C@@H](CCCCN)C(=O)N[C@@H](CC(=O)O)C(=O)N[C@@H](CC(C)C)C(=O)N[C@@H](C)C(=O)NCC(=O)N[C@@H](CCC(N)=O)C(=O)N[C@@H](CC(C)C)C(=O)N[C@@H](CC(=O)O)C(=O)N[C@@H](CCCCN)C(=O)N[C@@H](CC(C)C)C(=O)N[C@@H](CCCCN)C(=O)N[C@H]1CSSC[C@@H](C(=O)O)NC(=O)CNC(=O)[C@H]([C@@H](C)O)NC(=O)[C@H]([C@@H](C)CC)NC(=O)[C@H](CCCN=C(N)N)NC1=O)C(C)C)[C@@H](C)O [GIMDTVKNAAKDLAGQLDKLKCRITGC]
 |  |  |  | ≥ 115 | 57.4 (≈ 128 µg/mL) |  | CC(C)[C@H](N)C(=O)N[C@H](C(=O)N[C@@H](Cc1ccccc1)C(=O)N[C@@H](CCCN=C(N)N)C(=O)N[C@H](C(=O)N[C@@H](C)C(=O)N[C@@H](CO)C(=O)N[C@@H](CCCCN)C(=O)N[C@H](C(=O)N[C@@H](Cc1ccccc1)C(=O)N1CCC[C@H]1C(=O)N[C@@H](C)C(=O)N[C@H](C(=O)N[C@@H](Cc1ccc(O)cc1)C(=O)N[C@@H](CS)C(=O)N[C@H](C(=O)N[C@H](C(=O)N[C@@H](CO)C(=O)N[C@@H](CCCCN)C(=O)N[C@@H](CCCCN)C(=O)O)C(C)C)[C@@H](C)O)C(C)C)C(C)C)C(C)C)C(C)C [VVFRVASKVFPAVYCTVSKK]
 |  |  |  | ≥ 122 | > 122 |  | CC[C@H](C)[C@H](NC(=O)[C@@H](NC(=O)[C@H](C)NC(=O)[C@H](C)NC(=O)[C@@H](NC(=O)[C@H](CCCN=C(N)N)NC(=O)[C@H](CO)NC(=O)[C@H](CO)NC(=O)[C@@H](NC(=O)[C@@H](NC(=O)[C@H](CC(C)C)NC(=O)[C@@H](NC(=O)[C@H](Cc1ccccc1)NC(=O)[C@@H]1CCCN1C(=O)[C@H](CO)NC(=O)[C@@H](N)CCCCN)C(C)C)C(C)C)C(C)C)C(C)C)C(C)C)C(=O)N[C@@H](CCCCN)C(=O)N[C@@H](CO)C(=O)N[C@@H](CC(C)C)C(=O)N1CCC[C@H]1C(=O)O [KSPFVLVVSSRVAAVIKSLP]
20 (≈ 31.7 µg/mL) | 1.25 (≈ 1.98 µg/mL) | 2.5 (≈ 3.97 µg/mL) | 10 (≈ 15.9 µg/mL) |  |  |  | CC[C@H](C)[C@H](NC(=O)[C@H](CCCN=C(N)N)NC(=O)[C@H](CCC(N)=O)NC(=O)[C@@H](NC(=O)[C@H](CCCCN)NC(=O)[C@H](CCCN=C(N)N)NC(=O)[C@@H](N)CCCCN)C(C)C)C(=O)N[C@@H](CCCCN)C(=O)N[C@@H](CC(=O)O)C(=O)N[C@@H](Cc1ccccc1)C(=O)N[C@@H](CC(C)C)C(=O)N[C@@H](CCCN=C(N)N)C(=O)O [KRKVQRIKDFLR]
 |  |  |  | ≥ 123 | > 123 |  | CC(C)[C@H](NC(=O)[C@H](CO)NC(=O)[C@@H](NC(=O)[C@H](CCCCN)NC(=O)[C@H](C)NC(=O)[C@@H](NC(=O)[C@@H](NC(=O)[C@H](CCCCN)NC(=O)[C@@H](NC(=O)[C@H](Cc1ccccc1)NC(=O)[C@H](CO)NC(=O)[C@H](CS)NC(=O)[C@@H]1CCCN1C(=O)[C@H](Cc1ccc(O)cc1)NC(=O)[C@H](CO)NC(=O)CNC(=O)[C@H](CCCCN)NC(=O)CNC(=O)[C@@H](NC(=O)[C@@H](N)CCCCN)C(C)C)C(C)C)C(C)C)C(C)C)C(C)C)C(=O)O [KVGKGSYPCSFVKVVAKVSV]
